In patent US7192607B2, “Formulations for the prevention or the treatment of diseases affecting mucosae or skin, or for pregnancy prevention, and an applicator for the delivery of topical formulations into mucosal cavities” (Infectio Recherche Inc, priority 2002, dated 2007):

Legend:
[1] = Concentration of acyclovir in plasma after topical application; assay type: in vivo; conditions: drug incorporated within the poloxamer matrix; infected vs uninfected mice; 24 h
[2] = In vivo skin penetration of antivirals (distribution in skin tissues); design: species or system mice
HSV-1 (strain F) [3] = assay: Treatment of HSV-1 cutaneous lesions in mice with topical formulations; assay type: in vivo, hairless mice (SKH1); conditions: treatment started 24 h after infection, 3 times daily for 4 days
Protocol: For the purpose of testing the efficacy of our gel formulations in a murine model of cutaneous HSV-1 infection, the solutions were prepared within a phosphate buffer (0.2 M, pH 6) to be compatible with the pH of the skin.
The efficacy of our different topical formulations has been evaluated in a murine model of cutaneous HSV-1 infection. In brief, female hairless mice (SKH1; Charles River Breeding Laboratories Inc., St-Constant, QC, Canada), 5–7 weeks old were anesthetized by intraperitoneal injection of a mixture containing 70 mg/kg ketamine hydrochloride and 11.5 mg/kg xylazine. The virus was inoculated on the lateral side of the body in the left lumbar skin area. The skin was scratched six times with a 27 gauge needle held vertically in a crossed-hatched pattern. Fifty μl of viral suspension (HSV-1 strain F, 1.5×10^6 plaque forming units (PFU)/ml) was rubbed for 10 to 15 sec on the scarified skin area with a cotton tipped applicator saturated with culture medium [minimum essential medium (MEM) supplemented with 100 U/ml of penicillin-streptomycin, 2 mM L-glutamine and 2% fetal bovine serum (MEM-E +2% FBS)]. The scarified area was protected with a corn cushion which was maintained on the mice body with surgical tape. […]
Different treatment regimens were evaluated in this study. […] The efficacy of the different formulations was evaluated using lesion scores and survival.

HSV-1 (strain F) [4] = assay: In vitro susceptibility of HSV-1 to combination of foscarnet and SLS in Vero cells (PFU); assay type: cell-based, Herpes simplex virus type-1; conditions: combinations of different concentrations in overlay, 2 days, FIG. 22
Protocol: The effect of SLS on the efficacy of foscamet against HSV-1 (strain F) was investigated in Vero cells. In brief, cells were seeded in 24 well-plates (Costar, Montreal, QC, Canada) and were incubated with HSV-1 strain F (approximately 100 PFU/ml) for 2 h at 37° C. to allow virus adsorption. Afterwards, virus was removed and cells overlaid with 0.5 ml of 0.6% agarose Seaplaque (Marine Colloids, Rockland, Mass.) containing different concentrations of foscarnet, SLS or combination of both compounds. The plates were incubated for 2 days at 37° C. Cells were then fixed with 10% formaldehyde in PBS for 20 min, washed with deionized water and stained with 0.05% methylene blue. Virus susceptibility was evaluated via the determination of PFU.

HSV-1 (strain F) [5] = assay: Efficacy of SLS or DS added in overlay after infection against HSV-1 (strain F) in Vero cells (PFU); assay type: cell-based, Herpes simplex virus type-1; conditions: cells infected 2 h, compound in overlay for 2 days, FIG. 2
Protocol: In brief, cells were infected with the virus for 2 h at 37° C. Afterwards, supernatant was removed and cells were overlaid with 0.5 ml of EMEM +2% FBS containing 0.6% agarose Seaplaque and SLS or DS at the desired concentration. Plates were then incubated for 2 days at 37° C. in a 5% CO2 atmosphere. Cells were fixed with 10% formaldehyde in PBS for 20 min, washed with deionized water and stained with 0.05% methylene blue. Viral infectivity was evaluated following the determination of PFU.

HSV-1 (strain F) [6] = assay: Murine cutaneous infection model, HSV-1 pretreated with SLS or DS; assay type: in vivo, hairless mice (SKH1)
Protocol: The effect of pretreating HSV-1 (strain F) with SLS on viral infectivity has also been evaluated in a murine cutaneous infection model. Female hairless mice (SKH1; Charles River Breeding Laboratories Inc., St-Constant, QC, Canada), 5–6 weeks old were used throughout this study. […] Mice were anesthetized by intraperitoneal injection of a mixture containing 70 mg/kg ketamine hydrochloride (Rogarsetic* injection USP; Rogar/STB Inc. Montreal, QC, Canada) and 11.5 mg/kg xylazine (Rompun®; Miles Canada Inc., Etobicoke, ON, Canada). The virus was inoculated on the lateral side of the body in the left lumbar skin area. The skin was scratched six times in a crossed-hatched pattern with a 27-gauge needle held vertically. Viral suspension (50 μl) was deposited onto the scarified area and rubbed for 10 to 15 see with a cotton tipped applicator saturated with EMEM+2% FBS or SLS or DS solutions. The scarified area was protected with a corn cushion which was maintained on the mice body with surgical tape. The porous inner wall of the aperture of the corn cushion was impermeabilized with tissue adhesive prior to use to prevent absorption of the drug. The aperture of the corn cushion was also closed with surgical tape. Mice were then returned to their cages and observed twice daily.
In infected untreated mice, no pathological signs of cutaneous infection were visible during the first four days following infection and only the scarified area remained appearent. On day 5, herpetic skin lesions began to appear in some mice in the form of small vesicles distant from the inoculation site. On day 6, almost all untreated mice developed herpetic skin lesions in the form of a 4–5 mm wide band extending from the spine to the ventral midline of the infected dermatome similar to zoster-like infections. Maximal mean lesion score was observed on day 8. Mean lesion score decreased thereafter from day 11 to day 15 because of spontaneous regression of cutaneous lesions in some mice. […] Of prime importance, all mice infected with the virus pretreated with 100 μM SLS survived the infection (data not shown).

Vero cells = assay: Viability of Vero cells exposed to SLS or DS (MTS test); conditions: Vero cells exposed 1 h at 37° C. to concentrations as in FIG. 1 and Table 1; data not shown
HSV-1 (strain F) [7] = assay: Infectivity of HSV-1 (strain F) to Vero cells after treatment with SLS or DS (plaque forming units); assay type: cell-based, Herpes simplex virus type-1; conditions: independent of whether the virus was pretreated, FIG. 1, read-out: concentration giving a loss of 50% of the viral infectivity
Protocol: The effect of pretreating different strains of herpes viruses with SLS or DS on their viral infectivities to susceptible cells has been evaluated. In brief, cells were seeded in 24 well-plates (Costar, Montreal, QC, Canada). Prior to infection, the virus was either suspended in culture medium or phosphate buffered saline (PBS), or incubated with different concentrations of SLS in PBS for 1 h at 37° C. At confluency, cells were incubated with viral suspensions by centrifuging the plates (750× g for 45 min at 20° C.) to allow virus adsorption. Virus was removed and cell sheets were then overlaid with 0.5 ml of 0.6% agarose Seaplaque (Marine Colloids, Rockland, Md.) prepared in appropriate culture medium. The plates were incubated for 2 days at 37° C. Cells were then fixed with 10% formaldehyde in PBS for 20 min, washed with deionized water and stained with 0.05% methylene blue. Viral infectivity was evaluated via the determination of Plaque Forming Units (PFU).
HSV-1 (strain F) infectivity was reduced to 21% when viral particles were pretreated with 25 μM SLS. The infectivities of all HSV-2 strains were between 50 to 70% following preincubation with 25 μM SLS. A complete loss of the infectivity of all strains tested were obtained following pretreatment of the viruses with 50 μM SLS.
When SLS was immediately added to Vero cells following their infection, the loss of viral infectivity was less dramatic compared to that obtained for virus pretreated for 1 h at 37° C. with the same SLS concentrations. […] Similarly, pretreatment of the HSV-2 (strain 333) with SLS also influenced the infectivity of this strain (data not shown). On the other hand, DS reduces the infectivity of the virus independent of whether the virus was pretreated with DS.

With Nc1nc2c(ncn2COCCO)c(=O)[nH]1 [acyclovir] as the compound, how does the “increase of concentration in plasma by infection” value [1] read?
The value was 4 fold.

What about the “effect of infection on amount in the epidermis” value ([2]; infected vs uninfected mice, 24 h) of the same compound?
The value was “did not significantly increase”.

What about the “concentration in the epidermis and dermis compared with that of foscarnet” value ([2]; uninfected and infected mice, irrespective of the carrier, 24 h) of the same compound?
The value was “higher”.

Which results are given for O=C(O)P(=O)(O)O [foscarnet]?
mice that survived the infection (HSV-1 (strain F) [3]; 0.5% foscarnet in solution): Half; mean lesion score (HSV-1 (strain F) [3]; solution of 0.5% foscarnet): large reduction; concentration in the epidermis and dermis ([2]; infected mice, drug incorporated within the poloxamer vs phosphate buffer, 24 h): significantly higher; amounts found in the underlying epidermis and dermis ([2]; uninfected mice, irrespective of the carrier, 24 h after topical application): No or negligible amounts; efficacy of foscarnet against HSV-1 (strain F) in the presence of SLS (HSV-1 (strain F) [4]): enhanced

For dextran sulfate [DS], which “concentration with complete efficacy against viral replication” value (HSV-1 (strain F) [5]) is on record?
Its value is 20 µM.

What about the mean lesion score (HSV-1 (strain F) [6]; virus pretreated with 0.25 nM DS) of the same compound?
Its mean lesion score is “partial reduction”.

What about the “protection against the development of herpetic lesions” value (HSV-1 (strain F) [6]; virus pretreated with either 1 or 10 nM DS) of the same compound?
The value was “better protection”.

What about the “cytotoxicity (viability, MTS test)” value (Vero cells) of the same compound?
Its value is “No signs of cytotoxicity”.

What about the IC50 (HSV-1 (strain F) [7]) of the same compound?
Its IC50 is roughly 1 nM.
